Assays:
Experiment in all cases: Cytotoxicity assay (Alamar blue)
Type in all cases: cell-based
GLHU = conditions: Homo sapiens, Patient sample of Chronic Myelogenous leukemia
Protocol: (§1) FIGS. 16A-16B. Granaticin A and Granaticin B inhibit multiple tumor types: The indicated cell lines and primary patient samples were tested against the compounds listed in standard cytotoxicity assays (12 point dose response using Alamar blue reduction as an indicator of cell viability). Assays were done in triplicate and IC50 determinations were run in 12-point serial dilutions from […] to 5 nM. […] These include ras and EGFR gatekeeper mutation containing cell lines in addition to p53 mutant cell lines and other known chemotherapy resistant cell lines. Specifically, this included multi-drug resistance phenotype (MDR-overexpressing) cell lines from multiple hematologic and solid tumor cell lines. Table 1 highlights a series of primary patient leukemia samples-both acute and chronic and treatment naïve and refractory tested against granaticins A and B and Derivatives 1 and 2 (see Examples).

HPLD1 = conditions: Immortalized human bronchiolar epithelial cell with SV-40 Large T antigen
Protocol: as §1

MCF-10A = conditions: human normal mammary epithelium
Protocol: as §1

132 = conditions: Homo sapiens, Patient sample of Chronic Lymphocytic Leukemia
Protocol: as §1

MIHA = conditions: Homo sapiens, Patient sample of relapsed/refractory acute biphenotypic leukemia (refractory to allogeneic bone marrow transplant)
Protocol: as §1

HL60 RV = conditions: Homo sapiens, HL-60, MDR variant of HL60 selected with vincristine
Protocol: as §1

NCEB1 = conditions: Human Mantle Cell Lymphoma
Protocol: as §1

FUUR1 = conditions: human renal cell carcinoma with the reciprocal ASPL-TFE3 fusion transcript
Protocol: as §1

PC9 = conditions: PC-9, Human lung adenocarcinoma, DelE746-A750 EGFR mutation
Protocol: as §1

JOHO = conditions: Homo sapiens, Patient sample of primary refractory AML with inv3 and monosomy 7 (refractory to allogeneic BMT)
Protocol: as §1

MAWI = conditions: Homo sapiens, Patient sample of relpased/refractory AML with normal cytogenetics
Protocol: as §1

JAMC = conditions: Homo sapiens, Patient sample of AML with inversion of chromosome 16
Protocol: as §1

H358 = conditions: NCI-H358, Human lung adenocarcinoma, G13C KRAS mutation
Protocol: as §1

ALBU = conditions: Homo sapiens, Patient sample of essential thrombocythemia transformed to refractory acute myelogenous leukemia
Protocol: as §1

H820 = conditions: NCI-H820, human lung adenocarcinoma, Del E746-E749 and T790M EGFR mutations
Protocol: as §1

PAPR = conditions: Homo sapiens, Patient sample of relapsed acute myelomonocytic leukemia
Protocol: as §1

H11-18 = conditions: Human lung adenocarcinoma, L858R EGFR mutation
Protocol: as §1

JABR = conditions: Homo sapiens, Patient sample of relpased/refractory AML with normal cytogenetics and Flt-3 ITD
Protocol: as §1

MDA-MB -231 = conditions: human metastatic breast adenocarcinoma, estrogen, progesterone, and HER2/NEU receptor negative
Protocol: as §1

K562 = conditions: Human Chronic Myelogenous leukemia transformed to acute erythroleukemia
Protocol: as §1

DOGO = conditions: Homo sapiens, Patient sample of CLL with trisomy of chromosome 12 and unmutated Ig heavy chain locus
Protocol: as §1

RB355 = conditions: Human retinoblastoma
Protocol: as §1

A2780 = conditions: Human ovarian carcinoma
Protocol: as §1

KASUMI4 = conditions: Kasumi-4, Human CML transformed to acute myeloid leukemia, overexpression of EVI1
Protocol: as §1

HCC4011 = conditions: Human lung adenocarcinoma, L858R EGFR mutation, wild-type KRAS
Protocol: as §1

SKMEL28 = conditions: SK-MEL-28, Human melanoma
Protocol: as §1

JOBL = conditions: Homo sapiens, Patient sample of relapsed/refractory acute myelogenous leukemia
Protocol: as §1

H1650 = conditions: NCI-H1650, Human lung adenocarcinoma, DelE746-A750 EGFR mutation, wild-type RAS, PTEN null
Protocol: as §1

MOLT3 = conditions: MOLT-3, Human Acute Lympholastic T-cell Leukemia
Protocol: as §1

TC71 = conditions: TC-71, Human Ewing's sarcoma
Protocol: as §1

JNDSRCT1 = conditions: Human desmoplastic small round cell tumor cell line
Protocol: as §1

STGL = conditions: Homo sapiens, Patient sample of refractory AML with multiple chromosomal abnormalities (refractory to allogeneic BMT)
Protocol: as §1

CWR22 = conditions: human prostate carcinoma
Protocol: as §1

RORI = conditions: Homo sapiens, Patient sample of relapsed/refractory AML with trisomy of chromosome #8
Protocol: as §1

| Compound | IC50 (GLHU) | IC50 (HPLD1) | IC50 (MCF-10A) | IC50 132 | IC50 (MIHA) | IC50 (HL60 RV) | IC50 (NCEB1) | IC50 (FUUR1) | IC50 (PC9) | IC50 (JOHO) | IC50 (MAWI) | IC50 (JAMC) | IC50 (H358) | IC50 (ALBU) | IC50 (H820) | IC50 (PAPR) | IC50 (H11-18) | IC50 (JABR) | IC50 (MDA-MB -231) | IC50 (K562) | other results |
| --- | --- | --- | --- | --- | --- | --- | --- | --- | --- | --- | --- | --- | --- | --- | --- | --- | --- | --- | --- | --- | --- |
| CC1OC2CC(O)C1(O)c1c(O)c3c(c(O)c12)C(=O)C1=C(C3=O)[C@H](C)O[C@H]2CC(=O)O[C@@H]12 (some centres unmarked) [Granaticin A, granaticin A] | 260 nM | 180 nM | 260 nM | 130 nM | 300 nM | 90 nM | 330 nM | 480 nM | 300 nM | 880 nM | 720 nM | 60 nM | 210 nM | 430 nM | 90 nM | 990 nM | 420 nM | 210 nM | 470 nM | 120 nM | IC50 (DOGO): 150 nM; IC50 (RB355): 90 nM; IC50 (A2780): 120 nM; IC50 (KASUMI4): 300 nM; IC50 (HCC4011): 140 nM; IC50 (SKMEL28): 540 nM; IC50 (JOBL): 560 nM; IC50 (H1650): 290 nM; IC50 (MOLT3): 30 nM; IC50 (TC71): 150 nM; IC50 (JNDSRCT1): 70 nM; IC50 (STGL): 1880 nM; IC50 (CWR22): 90 nM; IC50 (RORI): 1200 nM |
| CC1OC2CC(O[C@H]3CC[C@H](O)[C@H](C)O3)C1(O)c1c(O)c3c(c(O)c12)C(=O)C1=C(C3=O)[C@H](C)O[C@H]2CC(=O)O[C@@H]12 (some centres unmarked) [Granaticin B, granaticin B] | 80 nM | 40 nM | 240 nM | 10 nM | 40 nM | 70 nM | 260 nM | 340 nM | 70 nM | 170 nM | 180 nM | 40 nM | 50 nM | 30 nM | 50 nM | 490 nM | 60 nM | 50 nM | 290 nM | 80 nM | IC50 (DOGO): 70 nM; IC50 (RB355): 40 nM; IC50 (A2780): 20 nM; IC50 (KASUMI4): 180 nM; IC50 (HCC4011): 50 nM; IC50 (SKMEL28): 340 nM; IC50 (JOBL): 190 nM; IC50 (H1650): 60 nM; IC50 (MOLT3): 10 nM; IC50 (TC71): 90 nM; IC50 (JNDSRCT1): 50 nM; IC50 (STGL): 620 nM; IC50 (CWR22): 40 nM; IC50 (RORI): 100 nM |

Reference: patent US20210283099A1, “CDC7 KINASE INHIBITORS AND USES THEREOF” (SLOAN-KETTERING INSTITUTE FOR CANCER RESEARCH, priority 2010, published 2021)
